Results published in patent publication US20230167073A1 (Teijin Pharma Limited, priority 2020, published 2023).

molecular target: T1, Human TRPC6 (Homo sapiens, UniProt Q9Y210); assay: Evaluation of TRPC6 channel inhibitory activity (1), FLIPR Calcium 5 Assay Kit, OAG stimulation (Compound Nos. 1-1293); assay type: cell-based; conditions: Human TRPC6 stably-expressing cells, OAG 30 μM, FLIPR Calcium 5 Assay Kit; read-out: Inhibitory activity (pIC50 class) (converted)
T1 construct: expressed in transfected cells
T1 sequence (Q9Y210 1-931): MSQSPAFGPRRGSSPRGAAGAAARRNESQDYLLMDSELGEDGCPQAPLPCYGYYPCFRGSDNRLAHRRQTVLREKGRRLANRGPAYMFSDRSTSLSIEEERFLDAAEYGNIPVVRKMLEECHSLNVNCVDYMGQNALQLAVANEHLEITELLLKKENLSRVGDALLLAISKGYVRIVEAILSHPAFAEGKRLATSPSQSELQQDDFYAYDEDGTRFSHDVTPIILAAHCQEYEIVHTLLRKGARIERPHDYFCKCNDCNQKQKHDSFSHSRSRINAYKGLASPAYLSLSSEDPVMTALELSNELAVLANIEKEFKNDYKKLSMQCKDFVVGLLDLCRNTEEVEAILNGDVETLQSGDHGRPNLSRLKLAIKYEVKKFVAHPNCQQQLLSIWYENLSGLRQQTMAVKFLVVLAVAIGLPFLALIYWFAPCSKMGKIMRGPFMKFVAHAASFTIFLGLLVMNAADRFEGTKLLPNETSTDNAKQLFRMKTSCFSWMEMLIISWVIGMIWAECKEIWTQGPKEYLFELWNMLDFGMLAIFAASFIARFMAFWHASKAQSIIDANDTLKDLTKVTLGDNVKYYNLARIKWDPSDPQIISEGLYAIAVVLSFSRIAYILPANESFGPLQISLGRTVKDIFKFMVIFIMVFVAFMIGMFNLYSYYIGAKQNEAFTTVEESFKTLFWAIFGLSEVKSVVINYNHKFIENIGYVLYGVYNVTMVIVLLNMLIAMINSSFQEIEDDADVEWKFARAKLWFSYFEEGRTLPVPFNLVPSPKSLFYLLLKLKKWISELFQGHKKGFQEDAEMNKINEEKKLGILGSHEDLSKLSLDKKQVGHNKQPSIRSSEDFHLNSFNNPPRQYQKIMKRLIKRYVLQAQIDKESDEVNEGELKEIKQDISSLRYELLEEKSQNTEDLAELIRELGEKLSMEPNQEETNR
How it was run: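 Readout is pIC50 from four-parameter logistic fitting of inhibition of the OAG-evoked (30 μM final) fluorescence calcium signal. Human TRPC6 stable cells are dye-loaded with probenecid, and compound is applied 20 min ahead of agonist.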

SMILES	IC50
NCCc1cnc(-c2ccc(F)cc2C(=O)c2cnn(C3CCC3)c2)nc1 [compound 1108, [2-[5-(2-aminoethyl)pyrimidin-2-yl]-5-fluorophenyl]-(1-cyclobutylpyrazol-4-yl)methanone]	0.01 to 1 µM
NCc1cnc(-c2ccc(F)cc2C(=O)c2cnn(C3CCC3)c2)nc1 [compound 1109, [2-[5-(aminomethyl)pyrimidin-2-yl]-5-fluorophenyl]-(1-cyclobutylpyrazol-4-yl)methanone]	0.01 to 1 µM
NCCc1ccc(-c2ccc(F)cc2C(=O)c2cnn(C3CCC3)c2)nc1 [compound 1110, [2-[5-(2-aminoethyl)pyridin-2-yl]-5-fluorophenyl]-(1-cyclobutylpyrazol-4-yl)methanone]	< 0.01 µM
CC(C)NC(=O)c1cn(Cc2cc(C#N)ccc2-c2ccc(CCN)cc2)cn1 [compound 1113, 1-[[2-[4-(2-aminoethyl)phenyl]-5-cyanophenyl]methyl]-N-propan-2-ylimidazole-4-carboxamide]	> 1 µM
CC(C)CNC(=O)c1cn(Cc2cc(C#N)ccc2-c2ccc(CCN)cc2)cn1 [compound 1114, 1-[[2-[4-(2-aminoethyl)phenyl]-5-cyanophenyl]methyl]-N-(2-methylpropyl)imidazole-4-carboxamide]	> 1 µM
CC(C)CNC(=O)c1cncn1Cc1cc(C#N)ccc1-c1ccc(CCN)cc1 [compound 1115, 3-[[2-[4-(2-aminoethyl)phenyl]-5-cyanophenyl]methyl]-N-(2-methylpropyl)imidazole-4-carboxamide]	> 1 µM
COCc1cncn1Cc1cc(C#N)ccc1-c1ccc(CCN)cc1 [compound 1116, 4-[4-(2-aminoethyl)phenyl]-3-[[5-(methoxymethyl)imidazol-1-yl]methyl]benzonitrile]	> 1 µM
CC(C)COCc1cncn1Cc1cc(C#N)ccc1-c1ccc(CCN)cc1 [compound 1117, 4-[4-(2-aminoethyl)phenyl]-3-[[5-(2-methylpropoxymethyl)imidazol-1-yl]methyl]benzonitrile]	0.01 to 1 µM
COCc1cn(Cc2cc(C#N)ccc2-c2ccc(CCN)cc2)cn1 [compound 1118, 4-[4-(2-aminoethyl)phenyl]-3-[[4-(methoxymethyl)imidazol-1-yl]methyl]benzonitrile]	> 1 µM
CC(C)COCc1cn(Cc2cc(C#N)ccc2-c2ccc(CCN)cc2)cn1 [compound 1119, 4-[4-(2-aminoethyl)phenyl]-3-[[4-(2-methylpropoxymethyl)imidazol-1-yl]methyl]benzonitrile]	0.01 to 1 µM
Cc1nc(-c2ccccc2)cn1Cc1cc(C#N)ccc1-c1ccc(CCN)cc1 [compound 1120, 4-[4-(2-aminoethyl)phenyl]-3-[(2-methyl-4-phenylimidazol-1-yl)methyl]benzonitrile]	< 0.01 µM
CCCc1nccn1Cc1cc(C#N)ccc1-c1ccc(CCN)cc1 [compound 1121, 4-[4-(2-aminoethyl)phenyl]-3-[(2-propylimidazol-1-yl)methyl]benzonitrile]	> 1 µM
N#Cc1ccc(-c2ccc(CCN)cc2)c(Cn2cnc(-n3ccnn3)c2)c1 [compound 1122, 4-[4-(2-aminoethyl)phenyl]-3-[[4-(triazol-1-yl)imidazol-1-yl]methyl]benzonitrile]	> 1 µM
N#Cc1ccc(-c2ccc(CCN)cc2)c(Cn2cnc(-n3cnnn3)c2)c1 [compound 1123, 4-[4-(2-aminoethyl)phenyl]-3-[[4-(tetrazol-1-yl)imidazol-1-yl]methyl]benzonitrile]	> 1 µM
N#Cc1ccc(-c2ccc(CCN)cc2)c(Cn2cnc(-c3ccc(C(F)(F)F)cc3)c2)c1 [compound 1124, 4-[4-(2-aminoethyl)phenyl]-3-[[4-[4-(trifluoromethyl)phenyl]imidazol-1-yl]methyl]benzonitrile]	> 1 µM
Cc1nc(-c2ccc(C(F)(F)F)cc2)cn1Cc1cc(C#N)ccc1-c1ccc(CCN)cc1 [compound 1125, 4-[4-(2-aminoethyl)phenyl]-3-[[2-methyl-4-[4-(trifluoromethyl)phenyl]imidazol-1-yl]methyl]benzonitrile]	> 1 µM
Cc1nc(COC(C)C)cn1Cc1cc(C#N)ccc1-c1ccc(CCN)cc1 [compound 1126, 4-[4-(2-aminoethyl)phenyl]-3-[[2-methyl-4-(propan-2-yloxymethyl)imidazol-1-yl]methyl]benzonitrile]	> 1 µM
COC(C)c1cn(Cc2cc(C#N)ccc2-c2ccc(CCN)cn2)c(C)n1 (stereo not drawn) [compound 1140, 4-[5-(2-aminoethyl)pyridin-2-yl]-3-[[4-(1-methoxyethyl)-2-methylimidazol-1-yl]methyl]benzonitrile]	0.01 to 1 µM
COC(C)c1cn(Cc2cc(C#N)ccc2-c2ncc(CCN)cn2)c(C)n1 (stereo not drawn) [compound 1141, 4-[5-(2-aminoethyl)pyrimidin-2-yl]-3-[[4-(1-methoxyethyl)-2-methylimidazol-1-yl]methyl]benzonitrile]	0.01 to 1 µM

Results, then the molecule that gave them:

IC50	SMILES
0.01 to 1 µM	N#Cc1ccc(-c2ccc(CCN)cc2)c(Cn2cnc(-c3ccccc3)c2)c1 [compound 1111, 4-[4-(2-aminoethyl)phenyl]-3-[(4-phenylimidazol-1-yl)methyl]benzonitrile]
> 1 µM	N#Cc1ccc(-c2ccc(CCN)cc2)c(Cn2ccc(-c3ccccc3)n2)c1 [compound 1112, 4-[4-(2-aminoethyl)phenyl]-3-[(3-phenylpyrazol-1-yl)methyl]benzonitrile]
> 1 µM	N#Cc1ccc(-n2cc(C(O)CN)cn2)c(Cn2cnc(-c3ccccc3)c2)c1 (stereo not drawn) [compound 1127, 4-[4-(2-amino-1-hydroxyethyl)pyrazol-1-yl]-3-[(4-phenylimidazol-1 yl)methyl]benzonitrile]
> 1 µM	Cc1nc(-c2ccccc2)cn1Cc1cc(C#N)ccc1-n1cc(C(O)CN)cn1 (stereo not drawn) [compound 1128, 4-[4-(2-amino-1-hydroxyethyl)pyrazol-1-yl]-3-[(2-methyl-4-phenylimidazol-1-yl)methyl]benzonitrile]
< 0.01 µM	N#Cc1ccc(-c2ccc(C(O)CN)cc2)c(Cn2cnc(-c3ccccc3)c2)c1 (stereo not drawn) [compound 1129, 4-[4-(2-amino-1-hydroxyethyl)phenyl]-3-[(4-phenylimidazol-1-yl)methyl]benzonitrile]
< 0.01 µM	Cc1nc(-c2ccccc2)cn1Cc1cc(C#N)ccc1-c1ccc(C(O)CN)cc1 (stereo not drawn) [compound 1130, 4-[4-(2-amino-1-hydroxyethyl)phenyl]-3-[(2-methyl-4-phenylimidazol-1-yl)methyl]benzonitrile]
0.01 to 1 µM	N#Cc1ccc(-c2ccc(CCN)nc2)c(Cn2cnc(-c3ccccc3)c2)c1 [compound 1132, 4-[6-(2-aminoethyl)pyridin-3-yl]-3-[(4-phenylimidazol-1-yl)methyl]benzonitrile]
> 1 µM	N#Cc1ccc(-c2ccc(C(O)CN)cn2)c(Cn2cncc2-c2ccccc2)c1 (stereo not drawn) [compound 1133, 4-[5-(2-amino-1-hydroxyethyl)pyridin-2-yl]-3-[(5-phenylimidazol-1-yl)methyl]benzonitrile]
> 1 µM	N#Cc1ccc(-c2ncc(CCN)cn2)c(Cn2cncc2-c2ccccc2)c1 [compound 1134, 4-[5-(2-aminoethyl)pyrimidin-2-yl]-3-[(5-phenylimidazol-1-yl)methyl]benzonitrile]
< 0.01 µM	N#Cc1ccc(-c2ncc(CCN)cn2)c(Cn2cnc(-c3ccccc3)c2)c1 [compound 1135, 4-[5-(2-aminoethyl)pyrimidin-2-yl]-3-[(4-phenylimidazol-1-yl)methyl]benzonitrile]
> 1 µM	N#Cc1ccc(-c2ccc([C@@H](O)CN)cn2)c(Cn2cncc2-c2ccccc2)c1 [compound 1136, 4-[5-[(1R)-2-amino-1-hydroxyethyl]pyridin-2-yl]-3-[(5-phenylimidazol-1-yl)methyl]benzonitrile]
< 0.01 µM	Cc1nc(-c2ccccc2)cn1Cc1cc(C#N)ccc1-c1ncc(CCN)cn1 [compound 1137, 4-[5-(2-aminoethyl)pyrimidin-2-yl]-3-[(2-methyl-4-phenylimidazol-1-yl)methyl]benzonitrile]
0.01 to 1 µM	N#Cc1ccc(-c2ccc([C@@H](O)CN)cn2)c(Cn2cnc(-c3ccccc3)c2)c1 [compound 1138, 4-[5-[(1R)-2-amino-1-hydroxyethyl]pyridin-2-yl]-3-[(4-phenylimidazol-1-yl)methyl]benzonitrile]
0.01 to 1 µM	Cc1nc(-c2ccccc2)cn1Cc1cc(C#N)ccc1-c1ccc(C(O)CN)cn1 (stereo not drawn) [compound 1139, 4-[5-(2-amino-1-hydroxyethyl)pyridin-2-yl]-3-[(2-methyl-4-phenylimidazol-1-yl)methyl]benzonitrile]
